This note sets out measurements from the OligoGym collection.

The data set deals with HSD17B13. The settings on record: ASO, HepaRG.

After the bases stand the sugars from the 5' end (letter, count) and the backbone: PS all phosphorothioate, else s phosphorothioate and o phosphodiester by linkage. Methylation of C is not given here. e = 2'-O-(2-methoxyethyl) (MOE); k = constrained ethyl (cEt); d = 2'-deoxy (DNA); m = 2'-O-methyl

With CCTCAAATGTCTTGGT (sugars k3 d10 k3, PS), the target mRNA inhibition (1 µM) was 6%. Still for that read-out and setting: as for GACAGAGCAATTTACT (sugars k3 d10 k3, PS), the figure is 55%; as for ATCAATGCCTTAGCCC (sugars k3 d10 k3, PS), 38%.

In turn, AATTCATAAGTAGTCT (sugars k3 d10 k3, PS) had a target mRNA inhibition (1 µM) of 28%. Still for that read-out and setting: the result for “TAGTGGACTTCATTAG (sugars k3 d9 k3 e1, PS)” reads 22%. GTCAGACCTCTGTGAA (sugars k3 d10 k3, PS) had a target mRNA inhibition (1 µM) of 34%. Still for that read-out and setting: the result for TGAAATTGATACACCA (sugars k3 d10 k3, PS) reads 58%.

Where the note is “1 µM”, CCAAACTTGCCCATAA (sugars k3 d10 k3, PS) came in with a target mRNA inhibition of 45%.

In the case of TACCAAACTTGCCCAT (sugars k3 d10 k3, PS), the target mRNA inhibition (1 µM) came to 33%. Consider ACGACTTCATCTGTCT (sugars k3 d10 k3, PS), for which the target mRNA inhibition (1 µM) was 8%. Same read-out and setting: as for “TAGCCAGTACAGTTCC (sugars k3 d9 k3 e1, PS)”, the figure is 58%. As for “CCAGTACAGTTCCTTT (sugars kkdddddddddkekek, PS)”, the target mRNA inhibition reads like this: (0.02 µM) 29%; (0.078 µM) 21%; (0.313 µM) 44%; (1 µM) 75%; (1.25 µM) 61%; (5 µM) 90%.

For the setting “1 µM”, TCTCAGAGTTCAGGCA (sugars k3 d10 k3, PS) yielded a target mRNA inhibition of 54%. The same measure, in the same setting: as for GAAGTGTAATGCTCCC (sugars k3 d10 k3, PS), the figure is 71%. As for GTTCATTCGAATTTCT (sugars k3 d10 k3, PS), the target mRNA inhibition is 0% (0.02 µM); 19% (0.078 µM); 60% (0.313 µM); 76% (1 µM); 87% (1.25 µM); 88% (5 µM). CTTCACCTGATTTAGA (sugars k3 d10 k3, PS): the target mRNA inhibition (1 µM) worked out at 7%. For the setting “1 µM”, “TTAAGATACCCAGGTT (sugars k3 d9 k3 e1, PS)” returned a target mRNA inhibition of 51%. Regarding TATACTTTTCCGTCTC (sugars k3 d10 k3, PS), the target mRNA inhibition (0.02 µM) was found to be 0%; the target mRNA inhibition (0.078 µM) was 22%; the target mRNA inhibition (0.313 µM) was determined as 44%; the target mRNA inhibition (1 µM) amounted to 71%; the target mRNA inhibition (1.25 µM) was 79%; the target mRNA inhibition (5 µM) stood at 83%.

Consider TGAGTTACATTACAGC (sugars k3 d10 k3, PS), for which the target mRNA inhibition amounted to 16% (0.02 µM); 34% (0.078 µM); 72% (0.313 µM); 90% (1 µM); 86% (1.25 µM); 89% (5 µM).

For the sequence GTTTTTATTGGGCCCA (sugars k3 d10 k3, PS), for the setting “1 µM”, the target mRNA inhibition was 67%.

The sequence AACAAGATTAGTCTTG (sugars k3 d10 k3, PS) yielded a target mRNA inhibition (1 µM) of 40%. In the case of TACGACTTCATCTGTC (sugars k3 d10 k3, PS), the target mRNA inhibition (1 µM) came to 29%.

Regarding CAAATGAGGCGGCACT (sugars k3 d10 k3, PS), the target mRNA inhibition (1 µM) is 32%.

“TATTATGTGATTGAGT (sugars kkdddddddddkekek, PS)” had a target mRNA inhibition (1 µM) of 65%.

For the setting “1 µM”, “AGTACAGTTCCTTTTC (sugars k3 d9 k3 e1, PS)” displayed a target mRNA inhibition of 59%. Still for that read-out and setting: as for “AAAGACTTTGAGACTC (sugars kkdddddddddkekek, PS)”, the figure is 45%.

“GTCACCTTTCATAATG (sugars k3 d1 m1 d8 k3, PS)” displayed a target mRNA inhibition (1 µM) of 40%. For the setting “1 µM”, TCAAAGCCTGTTGGAT (sugars k3 d10 k3, PS) returned a target mRNA inhibition of 35%. On the same count and under the same terms, the result for CGTTAGGTTTCCAAAT (sugars k3 d10 k3, PS) reads 0%; that for TAACCATAGGACATGG (sugars k3 d10 k3, PS), 70%. Same read-out and setting: as for GCATACTTATTAAGTA (sugars k3 d10 k3, PS), the figure is 32%.

Consider AACATCTCTGGGACCA (sugars k3 d10 k3, PS), for which the target mRNA inhibition is, setting by setting: (0.02 µM) 0%; (0.078 µM) 11%; (0.313 µM) 44%; (1 µM) 74%; (1.25 µM) 64%; (5 µM) 81%. For the sequence “TGTAGTGGGAGTCGGA (sugars kkdddddddddkekek, PS)”, under “1 µM”, the target mRNA inhibition was found to be 27%. On the same count and under the same terms, the result for GACATGAAGATTAGTT (sugars k3 d10 k3, PS) reads 3%; that for TGTATTAAGACAGTTG (sugars k3 d10 k3, PS), 34%; that for CTTATTAAGTACTGTG (sugars k3 d10 k3, PS), 0%. For AAAGTCAGTATCCCCT (sugars k3 d10 k3, PS), the target mRNA inhibition is 7% (0.02 µM); 21% (0.078 µM); 40% (0.313 µM); 77% (1 µM); 79% (1.25 µM); 82% (5 µM). For the setting “1 µM”, CTCTATTGGGCCAGGC (sugars k3 d10 k3, PS) came in with a target mRNA inhibition of 46%. GATGTTCATGGCTTTG (sugars k3 d10 k3, PS): the target mRNA inhibition by setting is: (0.02 µM) 0%; (0.078 µM) 5%; (0.313 µM) 75%; (1 µM) 81%; (1.25 µM) 68%. Sequence CTAACTAACCTGACAC (sugars k3 d10 k3, PS) registered a target mRNA inhibition (1 µM) of 23%. Regarding TTATTGGTAAGTATTC (sugars k3 d10 k3, PS), under “1 µM”, the target mRNA inhibition amounted to 17%. Same read-out and setting: the result for AAAAAGCTTATCGAGT (sugars k3 d10 k3, PS) reads 8%; that for TGAACATACATTGTTG (sugars k3 d10 k3, PS), 29%. As for “ACAGUAAAATTATGCC (sugars k3 d1 m1 d8 k3, PS)”, the target mRNA inhibition (1 µM) was 24%. Same read-out and setting: the result for TGCAGTTATTAGAAGT (sugars k3 d10 k3, PS) reads 46%. On the same count and under the same terms, as for GAGACAAGAGTTCTTG (sugars k3 d10 k3, PS), the figure is 19%.

GTCCATGCAAAAGCAT (sugars k3 d10 k3, PS) yielded a target mRNA inhibition (1 µM) of 62%. Still for that read-out and setting: the result for GCCTAGTTTTCGGCAC (sugars k3 d10 k3, PS) reads 12%; that for TACTCTAGGAGATATA (sugars k3 d10 k3, PS), 33%. As for TGGAATGCTACTTGAA (sugars k3 d10 k3, PS), the target mRNA inhibition by setting is: (0.02 µM) 0%; (0.078 µM) 22%; (0.313 µM) 55%; (1 µM) 85%; (1.25 µM) 71%; (5 µM) 90%. Take TAGAAACTGCTCCTCA (sugars k3 d10 k3, PS): where the note is “1 µM”, the target mRNA inhibition is 32%. Take “AGAGGCTAGGGAAATC (sugars k3 d1 m1 d8 k3, PS)”: the target mRNA inhibition (1 µM) came out at 48%. The same measure, in the same setting: the result for ATGTTTTGATCCAGGG (sugars k3 d10 k3, PS) reads 46%; that for GGGTGGTAACGGTGAT (sugars k3 d10 k3, PS), 46%. On the same count and under the same terms, as for AGCTTATCGAGTTTAG (sugars k3 d10 k3, PS), the figure is 54%; as for TACGACTTCCTTCTAA (sugars k3 d10 k3, PS), 67%. On the same count and under the same terms, the result for “GTAACGGTGATCAAAT (sugars k3 d1 m1 d8 k3, PS)” reads 21%; that for “AGGCTAGGGAAATCTT (sugars kkdddddddddkekek, PS)”, 45%; that for ACTTGAACAGTCTTAA (sugars k3 d10 k3, PS), 63%. Consider “GGAATGCTACTTGAAC (sugars kkdddddddddkekek, PS)”, for which the target mRNA inhibition (1 µM) was 49%. The same measure, in the same setting: the result for TAAGGTAAACTAAAGT (sugars k3 d10 k3, PS) reads 9%; that for “CTACACTAATATTGAG (sugars k3 d9 k3 e1, PS)”, 10%; that for CTCCTTATTTGTTAGA (sugars k3 d10 k3, PS), 26%. On the same count and under the same terms, the result for CAACAGTTTAGATTGC (sugars k3 d10 k3, PS) reads 66%; that for TTGTATGAGGTCTCTC (sugars k3 d10 k3, PS), 50%. Still for that read-out and setting: the result for “ATGTAATAGCCAGTAC (sugars kkdddddddddkekek, PS)” reads 47%; that for “GAACAATATGGGATGA (sugars k3 d1 m1 d8 k3, PS)”, 50%.

Turning to “AGTGCATCTTAAGATA (sugars k3 d9 k3 e1, PS)”, the target mRNA inhibition (1 µM) came out at 12%. Still for that read-out and setting: the result for ATAGAGGGTCCACTTT (sugars k3 d10 k3, PS) reads 21%.

CTGTTGCAAGTTCTTC (sugars k3 d10 k3, PS): the target mRNA inhibition was 0% (0.02 µM); 0% (0.078 µM); 49% (0.313 µM); 85% (1 µM); 73% (1.25 µM); 88% (5 µM). In the case of GACTGCTGCTAGTGCC (sugars k3 d10 k3, PS), for the setting “1 µM”, the target mRNA inhibition was 67%.

For the sequence GTGTAAGCTGAGAGTT (sugars k3 d10 k3, PS), for the setting “1 µM”, the target mRNA inhibition was 60%. Still for that read-out and setting: the result for GGTGAACCCAGTATTC (sugars k3 d10 k3, PS) reads 7%.

For the sequence CATCATCGATGGAAGA (sugars k3 d10 k3, PS), the target mRNA inhibition (1 µM) is 14%. Still for that read-out and setting: as for GGAGGAGGTACTGTCT (sugars k3 d10 k3, PS), the figure is 44%; as for TACATTCTTCAGGTGT (sugars k3 d10 k3, PS), 61%; as for AGAATACGCTGAGAGT (sugars k3 d10 k3, PS), 56%.
